Experiment: recombinant UMI read abundance after kanamycin selection (control-corrected) (log10(CPM+1)); higher = more efficient recombination; extreme values may be limits of the assay; sequences stand for … in AGTGCAGAGAAAATCGGCCAGTTTTCTCTGCCTGCAGTCCGCATGCCGTGGGACCCCTTGGGTTCTAACCTGTTGCCTAGATTTATGCAGCGGACTGCCTTTCTCCCAAAGTGATAAACCGG…AGGTTGGTTTCACT; site = the 11-nt donor
Method in brief: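 Under IPTG (0.07 mM) plus kanamycin, or without selection, Escherichia coli carrying a UMI-tagged donor and donor-binding-loop pair library and a target plasmid for the IS621 bridge recombinase were plated in two replicates. Recombinant UMIs were PCR-amplified across the donor–target junction and sequenced. Counts were converted to CPM, averaged over replicates, scaled by control-derived factors and reported as log10(CPM+1).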
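Also: IS621 bridge recombinase in Escherichia coli cells against a fixed T5 target plasmid.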

Sequence | recombinant UMI read abundance (log10)
TAGAATACATGGACCGGTTTTCCCGGTAATCCGTATTTGCG (site TAGAATACTTG) | 0.239
TAGAATTCATGGACCGGTTTTCCCGGTAATCCGTATTTGTA (site TAGAATTCTTA) | 1.67
TAGACTACATGGACCGGTTTTCCCGGTAATCCGTATTTGCA (site TAGAATACTTG) | 0.379
TAGACTACATGGACCGGTTTTCCCGGTAATCCGTATTTGCA (site TAGACTACTTG) | 1.62
TAGACTACATGGACCGGTTTTCCCGGTAATCCGTATTTGCA (site TAGAGTACTTG) | 0.0124
TAGACTACATGGACCGGTTTTCCCGGTAATCCGTATTTGCA (site TAGATTACTTG) | 0.502
TAGATTACATGGACCGGTTTTCCCGGTAATCCGTATTTGTA (site TAGATTACTTA) | 0.528
TAGCAAGCATGGACCGGTTTTCCCGGTAATCCGTATTTGAA (site TAGCAAGCTTT) | 1.45
TAGCAAGCATGGACCGGTTTTCCCGGTAATCCGTATTTGAA (site TAGCCAGCTTT) | 0.0116
TAGCAAGCATGGACCGGTTTTCCCGGTAATCCGTATTTGAA (site TAGCGAGCTTT) | 0.00665
TAGCAAGCATGGACCGGTTTTCCCGGTAATCCGTATTTGAA (site TAGCTAGCTTT) | 0.00716
TAGCATACATGGACCGGTTTTCCCGGTAATCCGTATTTGCA (site TAGAATACTTG) | 0
TAGCATACATGGACCGGTTTTCCCGGTAATCCGTATTTGCA (site TAGCATACTTG) | 1.62
TAGCATACATGGACCGGTTTTCCCGGTAATCCGTATTTGCA (site TAGGATACTTG) | 0
TAGCATACATGGACCGGTTTTCCCGGTAATCCGTATTTGCA (site TAGTATACTTG) | 0.507
TAGCATTCATGGACCGGTTTTCCCGGTAATCCGTATTTGGT (site TAGCATTCTAC) | 1.23
TAGCATTCATGGACCGGTTTTCCCGGTAATCCGTATTTGGT (site TAGCCTTCTAC) | 0.00694
TAGCATTCATGGACCGGTTTTCCCGGTAATCCGTATTTGGT (site TAGCGTTCTAC) | 0.0097
TAGCATTCATGGACCGGTTTTCCCGGTAATCCGTATTTGGT (site TAGCTTTCTAC) | 0
TAGCCATCATGGACCGGTTTTCCCGGTAATCCGTATTTGGT (site TAGCCATCTAC) | 0.74
TAGCCATCATGGACCGGTTTTCCCGGTAATCCGTATTTGGT (site TAGCCCTCTAC) | 0.0197
TAGCCATCATGGACCGGTTTTCCCGGTAATCCGTATTTGGT (site TAGCCGTCTAC) | 0.0186
TAGCCATCATGGACCGGTTTTCCCGGTAATCCGTATTTGGT (site TAGCCTTCTAC) | 0.0124
TAGCCCTCATGGACCGGTTTTCCCGGTAATCCGTATTTGGT (site TAGCCATCTAC) | 0.00538
TAGCCCTCATGGACCGGTTTTCCCGGTAATCCGTATTTGGT (site TAGCCCTCTAC) | 1.12

Sequence | recombinant UMI read abundance (log10)
TAGCCCTCATGGACCGGTTTTCCCGGTAATCCGTATTTGGT (site TAGCCGTCTAC) | 0.0119
TAGCCCTCATGGACCGGTTTTCCCGGTAATCCGTATTTGGT (site TAGCCTTCTAC) | 0
TAGCCGACATGGACCGGTTTTCCCGGTAATCCGTATTTGAC (site TAGCCGACTGT) | 2.63
TAGCCGGCATGGACCGGTTTTCCCGGTAATCCGTATTTGGC (site TAGCCGGCTGC) | 1.62
TAGCCGGCATGGACCGGTTTTCCCGGTAATCCGTATTTGGC (site TCGCCGGCTGC) | 0
TAGCCGGCATGGACCGGTTTTCCCGGTAATCCGTATTTGGC (site TGGCCGGCTGC) | 0
TAGCCGGCATGGACCGGTTTTCCCGGTAATCCGTATTTGGC (site TTGCCGGCTGC) | 0
TAGCCTCCATGGACCGGTTTTCCCGGTAATCCGTATTTGTT (site TAGCCTCCTAA) | 0.0845
TAGCCTGCATGGACCGGTTTTCCCGGTAATCCGTATTTGAT (site TAGCCTGCTAT) | 0.0647
TAGCGCGCATGGACCGGTTTTCCCGGTAATCCGTATTTGTC (site TAGCGCGCTGA) | 2.77
TAGCTAGCATGGACCGGTTTTCCCGGTAATCCGTATTTGAC (site TAGCTAGCTAT) | 0.556
TAGCTAGCATGGACCGGTTTTCCCGGTAATCCGTATTTGAC (site TAGCTAGCTCT) | 0
TAGCTAGCATGGACCGGTTTTCCCGGTAATCCGTATTTGAC (site TAGCTAGCTGT) | 2.34
TAGCTAGCATGGACCGGTTTTCCCGGTAATCCGTATTTGAC (site TAGCTAGCTTT) | 0.388
TAGCTAGCATGGACCGGTTTTCCCGGTAATCCGTATTTGAG (site TAGCTAGCTAT) | 0.457
TAGCTAGCATGGACCGGTTTTCCCGGTAATCCGTATTTGAG (site TAGCTAGCTCT) | 0.921
TAGCTAGCATGGACCGGTTTTCCCGGTAATCCGTATTTGAG (site TAGCTAGCTGT) | 0
TAGCTAGCATGGACCGGTTTTCCCGGTAATCCGTATTTGAG (site TAGCTAGCTTT) | 0.014
TAGCTAGCATGGACCGGTTTTCCCGGTAATCCGTATTTGGA (site TAGCTAGCTTA) | 0.347
TAGCTAGCATGGACCGGTTTTCCCGGTAATCCGTATTTGGA (site TAGCTAGCTTC) | 0.303
TAGCTAGCATGGACCGGTTTTCCCGGTAATCCGTATTTGGA (site TAGCTAGCTTG) | 0.447
TAGCTAGCATGGACCGGTTTTCCCGGTAATCCGTATTTGGA (site TAGCTAGCTTT) | 0.866
TAGCTCACATGGACCGGTTTTCCCGGTAATCCGTATTTGGC (site TAGCTCACTGC) | 1.5
TAGCTCGCATGGACCGGTTTTCCCGGTAATCCGTATTTGAA (site TAGCTAGCTTT) | 0.0173
TAGCTCGCATGGACCGGTTTTCCCGGTAATCCGTATTTGAA (site TAGCTCGCTTT) | 1.27

Sequence | recombinant UMI read abundance (log10)
TAGCTCGCATGGACCGGTTTTCCCGGTAATCCGTATTTGAA (site TAGCTGGCTTT) | 0.0219
TAGCTCGCATGGACCGGTTTTCCCGGTAATCCGTATTTGAA (site TAGCTTGCTTT) | 0.0127
TAGGAACCATGGACCGGTTTTCCCGGTAATCCGTATTTGCG (site TAGGAAACTCG) | 0.374
TAGGAACCATGGACCGGTTTTCCCGGTAATCCGTATTTGCG (site TAGGAACCTCG) | 0.478
TAGGAACCATGGACCGGTTTTCCCGGTAATCCGTATTTGCG (site TAGGAAGCTCG) | 0.00966
TAGGAACCATGGACCGGTTTTCCCGGTAATCCGTATTTGCG (site TAGGAATCTCG) | 0.681
TAGGAAGCATGGACCGGTTTTCCCGGTAATCCGTATTTGCG (site TAGGAAACTCG) | 2.32
TAGGAAGCATGGACCGGTTTTCCCGGTAATCCGTATTTGCG (site TAGGAACCTCG) | 0.00974
TAGGAAGCATGGACCGGTTTTCCCGGTAATCCGTATTTGCG (site TAGGAAGCTCG) | 2.73
TAGGAAGCATGGACCGGTTTTCCCGGTAATCCGTATTTGCG (site TAGGAATCTCG) | 1.85
TAGGAATCATGGACCGGTTTTCCCGGTAATCCGTATTTGCC (site TAGGAATCTAG) | 1.1
TAGGAATCATGGACCGGTTTTCCCGGTAATCCGTATTTGCC (site TAGGAATCTCG) | 0.458
TAGGAATCATGGACCGGTTTTCCCGGTAATCCGTATTTGCC (site TAGGAATCTGG) | 2.68
TAGGAATCATGGACCGGTTTTCCCGGTAATCCGTATTTGCC (site TAGGAATCTTG) | 1.74
TAGGACTCATGGACCGGTTTTCCCGGTAATCCGTATTTGCG (site TAGGAATCTCG) | 1.98
TAGGACTCATGGACCGGTTTTCCCGGTAATCCGTATTTGCG (site TAGGACTCTCG) | 2.75
TAGGACTCATGGACCGGTTTTCCCGGTAATCCGTATTTGCG (site TAGGAGTCTCG) | 1.05
TAGGACTCATGGACCGGTTTTCCCGGTAATCCGTATTTGCG (site TAGGATTCTCG) | 1.05
TAGGTACCATGGACCGGTTTTCCCGGTAATCCGTATTTGTT (site TAGGTACCTAA) | 0.0119
TAGGTTTCATGGACCGGTTTTCCCGGTAATCCGTATTTGCG (site TAGGTTTCTCG) | 1.99
TAGTAATCATGGACCGGTTTTCCCGGTAATCCGTATTTGCG (site TAGAAATCTCG) | 1.56
TAGTAATCATGGACCGGTTTTCCCGGTAATCCGTATTTGCG (site TAGCAATCTCG) | 2.29
TAGTAATCATGGACCGGTTTTCCCGGTAATCCGTATTTGCG (site TAGGAATCTCG) | 1.47
TAGTAATCATGGACCGGTTTTCCCGGTAATCCGTATTTGCG (site TAGTAATCTCG) | 2.65
TAGTACTCATGGACCGGTTTTCCCGGTAATCCGTATTTGAT (site TAGTACTCTAT) | 2.53
